Like-named read-outs stand apart in the source and are kept apart here. Where a SMILES comes first, the peptide text is derived from it.
Key:
[1] = Pharmacokinetic studies, plasma half-life; assay type: in vivo; details: rat
Procedure: The ability of the rats to remember or to relearn the original platform location was tested four weeks after original training. This means that residual drug would have been washed out for a minimum of 7 days in the case of the 3-week pumps, and 21 days in the case of the 1-week pumps. The retention testing procedure was identical to that of acquisition. Pharmacokinetic studies indicate that the plasma concentration of subcutaneously administered G-2-MePE rose to a peak and then declined with an approximately first order kinetic pattern, with a plasma half-life (t ½) of between about 30 and 60 minutes. Thus, by the time the retention study was performed, at least 7 days after removal of the G-2-MePE containing minipumps, nearly all of the G-2-MePE had been cleared from the animals' circulation.

MeCP2 deficient mice = assay: Seizure activity, electroencephalographic recordings (Example 12); details: mouse, in vivo
Source text: Electroencephalograpic recordings of wild-type mice and MeCP2 deficient mice treated with either saline or G-2-MePE are obtained using methods described in U.S. Pat. No. 7,714,020.

[2] = test system: heterozygous Shank3-deficient mice; assay: Social interaction and ultrasonic vocalization, Shank3-deficient mice (Example 13); assay type: in vivo, mouse; details: 15 or 60 mg/kg oral b.i.d. 14 days; vs placebo
Procedure: 1 to 3 month old wild type and heterozygous Shank3-deficient mice are divided into 4 treatment groups: placebo treated wild-type, placebo treated Shank3-deficient group and two Shank3-deficient G-2-MePE treated groups. The animals are given placebo (water) or G-2-MePE formulated in water administered orally, b.i.d for 14 days. G-2-MePE is administered at two doses: 15 or 60 mg/kg.
Behavioral assessments are made at several time points, and include analysis of social interactions and ultrasonic social communication, in line with the methodology described by Bozdagi et al. Briefly, male-female social interactions in each treatment group are evaluated. The subject males are group-housed and individually tested in clean cages with clean litter. Each testing session lasts 5 min. […] Videos from the male subjects are subsequently scored by an investigator uninformed of the subject's genotype and treatment group on measures of nose-to-nose sniffing, nose-to-anogenital sniffing and sniffing of other body regions, using Noldus Observer software (Noldus Information Technology, Leesburg, Va., USA). Ultrasonic vocalizations are identified manually by two highly trained investigators blinded to genotype/treatment group information, and summary statistics are calculated using the Avisoft package. […] Data are analysed using an unpaired Student's t-test.

Akt = assay: Western blot of phosphorylated Akt; assay type: in vivo, mouse; details: fmr1 KO; 100 mg/kg 4 weeks; p<0.05
Procedure: Phosphorylated Extracellular Signal-Regulated Protein Kinase (ERK) and Protein Kinase B (Akt) expression was measured by Western blot analysis in lymphocytes from fmr1 KO and wild-type animals administered ether vehicle or G-2MePE (100 mg/kg, i.p.; 28 days) treated in the behavior experiments as previously described (Lopez Verrilli et al. 2009). ERK is a classical MAPK signal transduction protein, responsible for growth factor transduction, proliferation, cytokine response to stress and apoptosis. […]
To conduct the western blots, antibodies were used against Akt ( 1/1000) (Cell Signaling), ERK1/2 ( 1/2000) (Cell Signaling), antiphospho-Akt ( 1/1000) and antiphospho-ERK ( 1/2000) (Cell Signaling). Total Akt and ERK 1/2 protein content (phosphorylated) were evaluated by blotting membranes with antiphospho-Akt ( 1/1000) and antiphospho-ERK antibodies ( 1/2000) (Cell Signaling). Akt or ERK phosphorylation was normalized to protein content in the same sample and expressed as % of change with respect to basal conditions, considering basal levels as 100%. Protein loading was evaluated by stripping and re-blotting membranes with b-actin antibody ( 1/1000) (Sigma Chemical Co.). […]

C[C@@]1(C(=O)N[C@@H](CCC(=O)O)C(=O)O)CCCN1C(=O)CN [Example G-2-MePE, Glycyl-L-2-methylprolyl-L-glutamic acid] (HELM PEPTIDE1{G.[C[C@@]1(C(=O)[*:2])CCCN1[*:1]].E}$$$$V2.0)
half-life ([1]; in vivo, read-out: plasma half-life in vivo): ~30 min | half-life ([1]; sc, subcutaneously administered, read-out: plasma half-life (t 1/2)): 30 to 60 min | motor seizures and non-convulsive seizures (MeCP2 deficient mice): effective in decreasing both motor seizures and non-convulsive seizures | cumulative duration of total social sniffing [2]: significant increase | number of ultrasonic vocalizations [2]: increased number of ultrasonic vocalizations | Akt phosphorylation compared to total Akt (Akt): significant reduction in Akt phosphorylation

Source: patent publication US20150224164A1, “TREATMENT OF AUTISM SPECTRUM DISORDERS USING GLYCYL-L-2-METHYLPROLYL-L-GLUMATIC ACID” (Neuren Pharmaceuticals Limited, priority 2013, published 2015)
